The structures appear in SMILES notation.

The target in the experiment is T1, Indoleamine 2,3-dioxygenase (Homo sapiens, UniProt P14902).
T1 construct: endogenous in cells; host or cells: SKOV-3 (ATCC HTB-77), stimulated with interferon gamma
T1 sequence (P14902 whole entry): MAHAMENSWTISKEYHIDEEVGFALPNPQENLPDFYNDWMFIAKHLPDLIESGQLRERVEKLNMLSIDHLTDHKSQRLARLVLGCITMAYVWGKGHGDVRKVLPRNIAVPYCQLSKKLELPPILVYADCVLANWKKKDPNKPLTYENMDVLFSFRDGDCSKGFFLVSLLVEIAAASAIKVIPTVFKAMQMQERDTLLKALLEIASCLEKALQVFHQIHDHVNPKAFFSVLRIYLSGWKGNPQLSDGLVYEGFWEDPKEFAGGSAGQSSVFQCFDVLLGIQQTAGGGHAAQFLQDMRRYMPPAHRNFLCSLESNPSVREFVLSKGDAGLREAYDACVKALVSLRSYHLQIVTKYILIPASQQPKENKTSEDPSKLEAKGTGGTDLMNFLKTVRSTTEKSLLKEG
The experiment in a line: SKOV-3 cellular Indoleamine 2,3-dioxygenase assay. To be noted: SKOV-3 cells, 50 ng/ml Interferon gamma, 100 μM L-Tryptophan, 24 hours, N-Formylkynurenin fluorescence detection; read-out: cell based activity. As to the method:
SKOV-3 cellular Indoleamine 2,3-dioxygenase assay
SKOV-3 cells were obtained from the American Type Culture Collection (ATCC® HTB-77™) and maintained in McCoy's medium (Pan Biotech) supplemented with 10% fetal bovine serum and 1% Penicilin/Streptomycin. Cells were kept at 37° C. in a humidified incubator with 5% CO2. For assay preparation, cells were seeded at a density of 2*10^5/ml into black clear bottom 96 well plates in 100 μl medium/well supplemented with 50 ng/ml Interferon gamma (eBioscience, Thermo Fisher Scientific). After cells fully adhered to the plate, dilution series of compounds were added in medium containing additional L-Tryptophan to a final L-Tryptophan concentration of 100 μM. The cells were incubated for 24 hours. Detection of produced N-Formylkynurenin was performed by addition of 3-Methylpiperidine to a final concentration of 200 mM. The plates were sealed and heated to 65° C. for 20 minutes in a water bath. After cooling the fluorescence of each well was recorded with a Victor™X4 (PerkinElmer) plate reader at an emission wavelength of 535 nm and excitation at 405 nm (Tomek et al.; Anal Bioanal Chem (2013) 405:2515-2524., Tomek et al.; Biochim Biophys Acta. 2015 September; 1850(9):1772-80).
As to `CS(=O)(=O)CCCOc1nonc1C(=NO)Nc1ccc(F)c(Cl)c1` [20/1, N-(3-Chloro-4-fluorophenyl)-N′-hydroxy-4-(3-(methylsulfonyl)propoxy)-1,2,5-oxadiazole-3-carboximidamide], the IC50 fell in the range of 100 to 1000 nM.
The value for `CS(=O)(=O)CCS(=O)(=O)NCCSc1nonc1C(=NO)Nc1ccc(F)c(C(F)F)c1` [100/1, N-(3-(Difluoromethyl)-4-fluorophenyl)-N′-hydroxy-4-((2-((2-(methylsulfonyl)ethyl)sulfonamido)ethyl)thio)-1,2,5-oxadiazole-3-carboximidamide] was less than 100 nM; that for `NS(=O)(=O)NCCSc1nonc1C(=NO)Nc1ccc(F)c(Cl)c1` [101/1, N-(3-Chloro-4-fluorophenyl)-N′-hydroxy-4-((2-(sulfamoylamino)ethyl)thio)-1,2,5-oxadiazole-3-carboximidamide] was less than 100 nM; that for `Nc1c(NCCSc2nonc2C(=NO)Nc2cccc(C(F)F)c2)c(=O)c1=O` [102/1] was less than 100 nM.
In the case of `Nc1c(NCCSc2nsnc2C(=NO)Nc2ccc(F)c(Cl)c2)c(=O)c1=O` [102/2] it was 100 to 1000 nM; in that of `CC(C)(O)C(O)C(=O)NCCSc1nonc1C(=NO)Nc1ccc(F)c(C(F)F)c1` (centres unmarked) [107/1], less than 100 nM; in that of `NS(=O)(=O)CC(=O)NCCSc1nonc1C(=NO)Nc1cc(F)cc(C(F)F)c1` [107/2], less than 100 nM.
As to `N#Cc1cc(N/C(=N\O)c2nonc2SCCNC(=O)CS(N)(=O)=O)ccc1F` [107/3], the IC50 was less than 100 nM.
As for `NS(=O)(=O)CC(=O)NCCSc1nonc1/C(=N/O)Nc1cccc(Br)c1` [107/4], the IC50 was less than 100 nM.
In the case of `NS(=O)(=O)CC(=O)NCCSc1nonc1/C(=N/O)Nc1cccc(Cl)c1` [107/5] it was less than 100 nM; in that of `CC(C)(O)C(=O)NCCSc1nonc1C(=NO)Nc1ccc(F)c(C(F)F)c1` [107/6], less than 100 nM.
Take `O=C(NCCSc1nonc1C(=NO)Nc1ccc(F)c(C(F)F)c1)C1(O)CCC1` [107/7]: the IC50 was less than 100 nM.
The value for `O=C(NCCSc1nonc1/C(=N/O)Nc1ccc(F)c(C(F)F)c1)C1CS(=O)(=O)C1` [107/8] was less than 100 nM; that for `Cc1cccc(NC(=NO)c2nonc2SCCNC(=O)CS(N)(=O)=O)c1` [107/10] was less than 100 nM; that for `NS(=O)(=O)CC(=O)NCCSc1nonc1C(=NO)Nc1cccc(CF)c1` [107/11] was less than 100 nM.
The value for `N#Cc1cccc(N/C(=N\O)c2nonc2SCCNC(=O)CS(N)(=O)=O)c1` [107/12] was less than 100 nM.
In the case of `N#Cc1cccc(NC(=NO)c2nonc2SCCNC(=O)CCS(N)(=O)=O)c1` [107/13] it was less than 100 nM.
Turning to `NS(=O)(=O)CC(=O)NCCSc1nonc1/C(=N/O)Nc1ccc(F)c(Br)c1` [107/14], the IC50 is less than 100 nM.
In the case of `NS(=O)(=O)CCC(=O)NCCSc1nonc1C(=NO)Nc1cccc(Cl)c1` [107/15] it was less than 100 nM.
Take `CC(C)(O)CC(=O)NCCSc1nonc1/C(=N/O)Nc1ccc(F)c(C(F)F)c1` [107/16]: the IC50 is less than 100 nM.
The value for `N#CCC(=O)NCCSc1nonc1/C(=N/O)Nc1ccc(F)c(C(F)F)c1` [107/17] was less than 100 nM; that for `O=C(CCCC[C@@H]1SC[C@@H]2NC(=O)N[C@@H]21)NCCSc1nonc1C(=NO)Nc1ccc(F)c(Cl)c1` [107/18] was less than 100 nM.
The value for `CC(C)(O)c1ccc(C(=O)NCCSc2nonc2C(=NO)Nc2ccc(F)c(C(F)(F)F)c2)cc1` [107/19] was less than 100 nM; that for `O=C(NCCSc1nonc1C(=NO)Nc1ccc(F)c(C(F)F)c1)c1ccc(C(O)(C(F)(F)F)C(F)(F)F)cc1` [107/20] was 100 to 1000 nM.
In the case of `O=C(CC(O)(C(F)(F)F)C(F)(F)F)NCCSc1nonc1C(=NO)Nc1ccc(F)c(C(F)(F)F)c1` [107/21] it was less than 100 nM; in that of `O=C(NCCSc1nonc1C(=NO)Nc1ccc(F)c(C(F)(F)F)c1)C1=NOC(C(O)(C(F)(F)F)C(F)(F)F)C1` (centres unmarked) [107/22], less than 100 nM; in that of `O=C(NCCSc1nonc1C(=NO)Nc1ccc(F)c(C(F)F)c1)c1ccc(C(F)(F)F)cc1` [107/23], less than 100 nM.
With `CS(=O)(=O)c1ccc(C(=O)NCCSc2nonc2C(=NO)Nc2ccc(F)c(C(F)F)c2)cc1` [107/24], the IC50 was less than 100 nM.
With `N#Cc1ccc(C(=O)NCCSc2nonc2C(=NO)Nc2ccc(F)c(C(F)F)c2)cc1` [107/25], the IC50 was less than 100 nM.
In the case of `O=C(NCCSc1nonc1C(=NO)Nc1ccc(F)c(C(F)F)c1)c1ccc(-n2cnnc2)cc1` [107/26] it was 100 to 1000 nM; in that of `O=C(NCCSc1nonc1C(=NO)Nc1ccc(F)c(C(F)F)c1)c1ccc(-n2cnnn2)cc1` [107/27], less than 100 nM; in that of `N#CC1(c2ccc(C(=O)NCCSc3nonc3C(=NO)Nc3ccc(F)c(C(F)F)c3)cc2)CC1` [107/28], less than 100 nM.
The value for `O=C(NCCSc1nonc1C(=NO)Nc1ccc(F)c(C(F)F)c1)c1ccc(C2(O)COC2)cc1` [107/29] was less than 100 nM.
The value for `O=C(NCCSc1nonc1C(=NO)Nc1ccc(F)c(C(F)F)c1)c1ccc(C(O)(C(F)(F)F)C(F)(F)F)nc1` [107/30] was less than 100 nM; that for `NS(=O)(=O)CC(=O)NCCSc1nonc1/C(=N/O)Nc1ccc(F)c(C(F)(F)F)c1` [107/31] was less than 100 nM.
Regarding `CS(=O)(=O)CC(=O)NCCSc1nonc1/C(=N/O)Nc1ccc(F)c(C(F)F)c1` [107/32], the IC50 is less than 100 nM.
`NS(=O)(=O)CC(=O)NCCSc1nonc1C(=NO)Nc1cc(F)c(F)c(C(F)F)c1` [107/33]: the IC50 was less than 100 nM.
The value for `NS(=O)(=O)CC(=O)NCCSc1nonc1C(=NO)Nc1cncc(C(F)(F)F)c1` [107/34] was greater than 1000 nM.
On to `NS(=O)(=O)CCC(=O)NCCSc1nonc1C(=NO)Nc1ccc(F)c(C(F)(F)F)c1` [107/35], for which the IC50 was less than 100 nM.
In the case of `NS(=O)(=O)CCC(=O)NCCSc1nonc1C(=NO)Nc1ccc(F)c(C(F)F)c1` [107/36] it was less than 100 nM; in that of `NC(=O)CCC(=O)NCCSc1nonc1C(=NO)Nc1ccc(F)c(C(F)F)c1` [107/37], less than 100 nM; in that of `CS(=O)(=O)CCC(=O)NCCSc1nonc1C(=NO)Nc1ccc(F)c(C(F)F)c1` [107/38], less than 100 nM.
In the case of `CS(=O)(=O)CCC(=O)NCCSc1nonc1C(=NO)Nc1cccc(Cl)c1` [107/39] it was less than 100 nM; in that of `CS(=O)(=O)CCC(=O)NCCSc1nonc1C(=NO)Nc1cccc(Br)c1` [107/40], less than 100 nM; in that of `CS(=O)(=O)CCC(=O)NCCSc1nonc1/C(=N/O)Nc1ccc(F)c(Br)c1` [107/41], less than 100 nM.
In the case of `O=C(O)C1CN(CCSc2nonc2C(=NO)Nc2ccc(F)c(C(F)F)c2)C1` [108/1] it was greater than 1000 nM; in that of `O=C(O)CC1CN(CCSc2nonc2C(=NO)Nc2ccc(F)c(C(F)F)c2)C1` [108/2], 100 to 1000 nM.
Consider `NS(=O)(=O)NCC[S+]([O-])c1nonc1C(=NO)Nc1ccc(F)c(Cl)c1` (centres unmarked) [109/1], for which the IC50 is greater than 1000 nM.
As to `[O-][S+](c1nonc1C(=NO)Nc1ccc(F)c(Br)c1)C1CC1` (centres unmarked) [109/2], the IC50 lay in the range of 100 to 1000 nM.
The value for `[O-][S+](CC(F)(F)F)c1nonc1C(=NO)Nc1ccc(F)c(Br)c1` (centres unmarked) [109/3] was greater than 1000 nM; that for `O=C(NCCSc1nonc1C(=NO)Nc1ccc(F)c(Cl)c1)c1n[nH]c(=O)[nH]1` [117/1] was 100 to 1000 nM.
In the case of `O=C(NCCSc1nonc1C(=NO)Nc1ccc(F)c(Cl)c1)c1ccnc2nn[nH]c12` [117/2] it was greater than 1000 nM.
In the case of `Cn1nc(C(=O)NCCSc2nonc2C(=NO)Nc2ccc(F)c(Cl)c2)[nH]c1=O` [117/3] it was less than 100 nM; in that of `O=C(NCCSc1nonc1C(=NO)Nc1ccc(F)c(Cl)c1)c1ccc(C(O)(C(F)(F)F)C(F)(F)F)cc1` [117/4], 100 to 1000 nM; in that of `O=C(NCCSc1nonc1C(=NO)Nc1ccc(F)c(Cl)c1)c1ccc(C(=O)O)nc1` [117/5], greater than 1000 nM.
`O=C(NCCSc1nonc1C(=NO)Nc1ccc(F)c(Cl)c1)c1nnc(C(F)(F)F)[nH]1` [117/6]: the IC50 fell in the range of 100 to 1000 nM.
As for `Cc1nnc(C(=O)NCCSc2nonc2C(=NO)Nc2ccc(F)c(Cl)c2)o1` [117/7], the IC50 was less than 100 nM.
As for `NS(=O)(=O)c1ccc(C(=O)NCCSc2nonc2C(=NO)Nc2ccc(F)c(Cl)c2)cc1` [117/8], the IC50 is less than 100 nM.
In the case of `NC(=O)c1ccc(C(=O)NCCSc2nonc2C(=NO)Nc2ccc(F)c(Cl)c2)cc1` [117/9] it was less than 100 nM; in that of `CS(=O)(=O)Nc1ccc(C(=O)NCCSc2nonc2C(=NO)Nc2ccc(F)c(C(F)F)c2)cc1` [117/10], less than 100 nM; in that of `O=C(NCCSc1nonc1C(=NO)Nc1ccc(F)c(Cl)c1)c1ccc(NS(=O)(=O)C(F)(F)F)nc1` [117/11], greater than 1000 nM.
Turning to `NS(=O)(=O)CC(=O)NCCSc1nonc1/C(=N/O)Nc1ccc(F)c(C(F)F)c1` [117/12], the IC50 was less than 100 nM.
In the case of `NS(=O)(=O)CC(=O)NCCSc1nonc1/C(=N/O)Nc1cccc(C(F)(F)F)c1` [117/13] it was less than 100 nM; in that of `NS(=O)(=O)c1ccc(C(=O)NCCSc2nonc2C(=NO)Nc2ccc(F)c(C(F)F)c2)cc1` [117/14], less than 100 nM.
`NS(=O)(=O)c1ccc(C(=O)NCCSc2nonc2C(=NO)Nc2cccc(C(F)F)c2)cc1` [117/15]: the IC50 is less than 100 nM.
